Consider 4 compounds from patent US7368444B2, “N-carbamoyl nitrogen-containing fused ring compounds and drugs containing these compounds as the active ingredient” (Ono Pharmaceutical Co., Ltd., priority 2002, dated 2008).

One experiment concerns the target T1, MBR (Rattus norvegicus, UniProt P16257).
T1 construct: After male wistar rats were decapitated followed to remove the whole brain, cerebellums were removed; from tissue; host or cells: male Wistar rat whole brain without cerebellum, crude membrane pellet (12,000 g)
Description: Receptor binding: [3H]PK11195 competition binding, rat brain membrane preparation. The conditions noted are these: 1 nmol/L [3H]PK11195, rat brain membrane preparation; Ki from IC50 by Cheng & Prusoff. On the procedure:
The affinity of the compound to MBR was determined using rat brain membrane preparation. After male wistar rats were decapitated followed to remove the whole brain, cerebellums were removed. They were homogenized in ice-cold 50 mmo/L Tris-HCl buffer (pH7.4) and the homogenates were centrifuged at 12,000 g for 20 min (4° C.), and then their supernatants were discarded. The residual pellets were washed in the same buffer. The pellets resuspended in 50 mmo/L Tris-HCl buffer (pH7.4) and adjusted to about 1 mg/mL were used as rat brain membrane preparations for binding assay. The binding assay was experimented using [3H]PK11195 as a selective MBR ligand.
To determine the amount of total binding in saturation binding study, membrane preparations, various concentrations of [^3H]PK11195, final concentraion: 0.5 vol % dimethylsulfoxide (DMSO) and 50 mmo/L Tris-HCl buffer (pH7.4) (total volume of 200 μL) were incubated for 1 hour at room temperature. To determine the amount of non-specific binding, 20 μmol/L of PK11195 was added in place of DMSO were incubated for 1 hour. The mixture rapidly was filtrated on GF/B filter soaked with 0.3% polyethyleneimine using cell harvester, which was washed twice with 50 mmo/L Tris-HCl buffer (pH7.4). After drying, the radioactivity on the filer was measured by liquid scintillation counter. The data were analyzed using analysis soft KELL (Ver. 6, BIOSOFT). The dissociation constant (KD value) was determined by using scatchard analyses.
To determine the amount of total binding in competition binding study, membrane preparation, final concentraion: 1 nmol/L of [^3H]PK11195, final concentraion: 0.5 vol % of DMSO and 50 mmol/L Tris-HCl buffer (pH7.4) (the total volume of 200 μL) were incubated for 1 hour at room temperature. […] The reaction was terminated as above described 1 hour later, then radioactivity on the filer was measured by liquid scintillation counter. […]

In experiment [1] the test system is rat adrenocortical mitochondria. The experiment in a line: Determination of pregnenolone in rat adrenocortical mitochondria. The conditions noted are these: final concentration of the compound 1 μmol/L; compared with DMSO treated group. It is filed as biochemical. On the procedure: The steroid productivity of the present compound was evaluated using rat adrenocortical mitochondria.
After intraperitoneal administration of 20 mg/mL (1 mL) cycloheximide, 10 IU/mL (0.3 mL) adrenocorticotropic hormone (ACTH) was intraperitoneally administered to Male SD rats 5 minutes later. Then, rats were sacrificed by cervical dislocation 20 minutes later and bilateral adrenal cortexes were extirpated at once. The extirpated adrenal cortexes were homogenized in buffer A (50 mmol/L Tris-HCl, 250 mmol/L Succrose) followed to be centrifuged at 2,000 g for 3 min (4° C.). The supernatant was centrifuged at 12,500 g for 10 min (4° C.). The residual pellet was resuspended in buffer A followed to be centrifuged at 12,500 g for 10 min (4° C.). The pellet was washed again and finally suspended in buffer B (250 mmol/L Succrose, 10 mmol/L potassium phosphate buffer, 15 mmol/L triethanolamine, 20 mmol/L potassium chloride, 5 mmol/L magnesium chloride, 10 μmol/L trilostane, 10 μmol/L SU10603) for experiments. Malate (150 mmol/L), β-NADP^+ (5 mmol/L) and the compound in a total volume of 25 μL were incubated for 5 min at 37° C. […] The radioactivity of the supernatant was measured by liquid scintillation counter. The pregnenolone content in the sample was calculated from standard curve.

SMILES strings stand for the structures.

One may read the Ki as a measure of affinity in units of concentration, obtained from inhibition or displacement. Low readings indicate a stronger hold on the target, high ones a looser hold on the target.

`O=C(Nc1ccccc1)N1CCCCc2ccc(F)cc21` [7 (5), 8-fluoro-1-phenylcarbamoyl-2,3,4,5-tetrahydro-1H-1-benzazepine] yielded a Ki on MBR of 5.5 nM.

Consider `O=C(Nc1c(Cl)cccc1Cl)N1CCCCc2ccccc21` [7 (18), 1-(2,6-dichlorophenylcarbamoyl)-2,3,4,5-tetrahydro-1H-1-benzazepine], for which the Ki on MBR stood at 0.09 nM. Compared with the last compound, the Ki is about 61-fold lower.

Compound `O=C(Nc1ccc(O)cc1)N1CCCCc2ccccc21` [Example 14, 1-(4-hydroxyphenylcarbamoyl)-2,3,4,5-tetrahydro-1H-1-benzazepine] displayed an inhibition constant Ki on MBR of 32 nM.

With `CCCCCCN(CCCCCC)C(=O)Cc1c(-c2ccc(F)cc2)[nH]c2ccccc12` [FGIN1-27, 2-[2-(4-fluorophenyl)-1H-indol-3-yl]-N,N-dihexylacetamide], the pregnenolone content entry in experiment [1] was “higher than that in DMSO treated group”.
